pIC50: −log10 of the molar value.

Sequence of IDO (P14902 whole entry): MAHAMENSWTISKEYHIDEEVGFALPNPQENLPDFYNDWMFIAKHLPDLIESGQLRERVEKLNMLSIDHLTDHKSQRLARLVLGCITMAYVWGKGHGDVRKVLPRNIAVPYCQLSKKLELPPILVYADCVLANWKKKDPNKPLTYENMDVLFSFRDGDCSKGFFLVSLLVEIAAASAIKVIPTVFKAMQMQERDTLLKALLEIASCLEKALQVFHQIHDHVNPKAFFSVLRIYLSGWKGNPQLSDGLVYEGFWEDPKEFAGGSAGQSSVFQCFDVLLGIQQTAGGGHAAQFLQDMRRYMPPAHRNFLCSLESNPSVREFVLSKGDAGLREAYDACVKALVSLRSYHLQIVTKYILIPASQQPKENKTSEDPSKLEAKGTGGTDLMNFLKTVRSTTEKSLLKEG

For this test, the target named is IDO (Homo sapiens (Human), UniProt P14902). Nature of the test: Kynurenine assay in IFN-γ-stimulated Hela cells. Format: cell-based. The settings on record: 20 h, read-out: Hela Kyurenine (IC50). As to the method:
Reagents: Hela cells (ATCC, CCL-2)
IFNg (R&D, 28-IF-100)—resuspend at 10 ug/mL in PBS with 0.1% BSA 30% TCA
Ehrlich reagent (2% w/v p-dimethylaminobenzaldehyde in glacial acetic acid)
Cell Lines and Culture Conditions
Hela cancer cell lines were acquired from the American Type Culture Collection. Cells were maintained in phenol red free-RPMI1640 medium containing high glucose and L-glutamine (Invitrogen) supplemented with 10% fetal bovine serum (FBS; Invitrogen). Cell cultures were incubated at 37° C., 5% CO2, and 100% humidity.
Cell Treatment and Kynurenine Assay
Hela cells were seeded on 96-well plates (40,000 cells per well) and allowed to adhere for 5-6 hours. Cells were then treated with vehicle (DMSO) or with IDO inhibitor at a top dose of 30 μM (3-fold dilution all the way down to 1.5 nM). A final concentration of 100 ng/mL of human recombinant IFN-γ (R&D, 28-IF-100) was immediately added to the cells to stimulate IDO expression. Treated cells were then incubated for 20 hours at 37° C. At the end of the 20 h incubation, reactions were terminated by the addition of 30% TCA to each well. Plates were incubated for 30 minutes at 50° C. to hydrolyze N-formylkynurenine to kynurenine. Cells were centrifuged 10 minutes at 2400 rpm. 100 ul of supernatants were transferred to new 96 flat well plates and mixed with 100 ul Ehrlich reagent. The resulting solution was incubated 10 minutes at RT. Absorbance at 490 nm was read using Spectra Max 384 (Molecular Devices).
Turning to `O=C(Nc1ccccc1Cl)Nc1cc(-c2ccccc2-c2nnn[nH]2)ccc1Oc1cccc2c1CCCC2` [Example 186, 1-(2-chlorophenyl)-3-(4-(5,6,7,8-tetrahydronaphthalen-1-yloxy)-2′-(1H-tetrazol-5-yl)biphenyl-3-yl)urea], the negative logarithm of the IC50 (pIC50) is 5.95.

On to `CC(C)(C)c1ccccc1Oc1ccc(-c2ccccc2-c2nnn[nH]2)cc1NC(=O)Nc1ccccc1C(F)(F)F` [Example 183, 1-(4-(2-tert-butylphenoxy)-2′-(1H-tetrazol-5-yl)biphenyl-3-yl)-3-(2-(trifluoromethyl)phenyl)urea], for which the pIC50 is 6.16.

On to `CC(C)(C)c1ccccc1Oc1ccc(-c2cc(F)cc(C(=O)O)c2)cc1NC(=O)Nc1ccc(OC(F)(F)F)cc1` [Example 222, 4′-(2-tert-butylphenoxy)-5-fluoro-3′-(3-(4-(trifluoromethoxy)phenyl)ureido) biphenyl-3-carboxylic acid], for which the pIC50 was 5.79.

For the compound `CC(C)(C)c1ccccc1Oc1ccc(-c2ccc(C(=O)O)cc2)cc1NC(=O)Nc1ccccc1C(F)(F)F` [Example 210, 4′-(2-tert-butylphenoxy)-3′-(3-(2-(trifluoromethyl)phenyl)ureido) biphenyl-4-carboxylic acid], the pIC50 is 5.81.

`COc1ccc(-c2ccc(Oc3ccccc3Cl)c(NC(=O)Nc3ccc(C)cc3)c2)cc1C(=O)O` [Example 51, 4′-(2-chlorophenoxy)-4-methoxy-3′-(3-p-tolylureido)biphenyl-3-carboxylic acid]: the pIC50 is 6.08.

`COc1ccc(-c2ccc(Oc3ccccc3C(C)(C)C)c(NC(=O)NC3CCCCC3)c2)cc1C(=O)O` [Example 91, 4′-(2-(tert-butyl)phenoxy)-3′-(3-(cyclohexyl)ureido)-4-methoxy-[1,1′-biphenyl]-3-carboxylic acid]: the pIC50 is 6.60.

As to `O=C(Nc1cc(-c2cc(Cl)cc(C(=O)O)c2)ccc1Oc1ccccc1)Nc1ccccc1C(F)(F)F` [Example 250, 5-chloro-4′-phenoxy-3′-(3-(2-(trifluoromethyl)phenyl)ureido) biphenyl-3-carboxylic acid], the pIC50 is 5.97.

On to `CC(C)(C)c1ccccc1Oc1ccc(-c2cccc(C(=O)O)c2)cc1NC(=O)Nc1ccccc1` [Example 234, 4′-(2-tert-butylphenoxy)-3′-(3-phenylureido) biphenyl-3-carboxylic acid], for which the pIC50 is 5.73.

For the compound `CC(C)(C)c1ccccc1Oc1ccc(-c2ccc(C(=O)O)c(F)c2)cc1NC(=O)Nc1ccccc1Cl` [Example 217, 4′-(2-tert-butylphenoxy)-3′-(3-(2-chlorophenyl)ureido)-3-fluorobiphenyl-4-carboxylic acid], the negative logarithm of the IC50 (pIC50) is 5.90.

For the compound `COc1ccc(-c2ccc(Oc3ccccc3Cl)c(NC(=O)Nc3cccc(C)c3)c2)cc1C(=O)O` [Example 50, 4′-(2-chlorophenoxy)-4-methoxy-3′-(3-m-tolylureido)biphenyl-3-carboxylic acid], the pIC50 was 6.05.

Consider `CC(C)(C)c1ccccc1Oc1ccc(-c2cccc(C(=O)O)c2)cc1NC(=O)Nc1ccccc1Cl` [Example 228, 4′-(2-tert-butylphenoxy)-3′-(3-(2-chlorophenyl)ureido)biphenyl-3-carboxylic acid], for which the pIC50 was 6.38.

Turning to `Cc1cccc(NC(=O)Nc2cc(-c3cc(Cl)cc(C(=O)O)c3)ccc2Oc2ccccc2C(C)(C)C)c1` [Example 239, 4′-(2-tert-butylphenoxy)-5-chloro-3′-(3-m-tolylureido) biphenyl-3-carboxylic acid], the pIC50 is 5.99.

For the compound `COc1ccc(-c2ccc(Oc3ccccc3C)c(NC(=O)Nc3cccc(C)c3)c2)cc1C(=O)O` [Example 70, 4-methoxy-4′-(o-tolyloxy)-3′-(3-m-tolylureido)biphenyl-3-carboxylic acid], the pIC50 was 6.41.

In the case of `COc1ccc(-c2ccc(Oc3ccccc3C)c(NC(=O)Nc3ccccc3Cl)c2)cc1C(=O)O` [Example 71, 3′-(3-(2-chlorophenyl)ureido)-4-methoxy-4′-(o-tolyloxy)biphenyl-3-carboxylic acid], the pIC50 was 6.74.

Take `CC(C)(C)c1ccccc1Oc1ccc(-c2ccc(C(=O)O)c(Cl)c2)cc1NC(=O)Nc1ccccc1C(F)(F)F` [Example 214, 4′-(2-tert-butylphenoxy)-3-chloro-3′-(3-(2-(trifluoromethyl)phenyl)ureido) biphenyl-4-carboxylic acid]: the pIC50 was 6.82.

For `COc1ccc(-c2ccc(Oc3ccccc3C(C)(C)C)c(NC(=O)Nc3cccc(C)c3C)c2)cc1C(=O)O` [Example 92, 4′-(2-(tert-butyl)phenoxy)-3′-(3-(2,3-dimethylphenyl)ureido)-4-methoxy-[1,1′-biphenyl]-3-carboxylic acid], the pIC50 is 6.62.

For `CCc1ccccc1Oc1ccc(-c2ccc(OC)c(C(=O)O)c2)cc1NC(=O)Nc1ccccc1Cl` [Example 55, 3′-(3-(2-chlorophenyl)ureido)-4′-(2-ethylphenoxy)-4-methoxybiphenyl-3-carboxylic acid], the pIC50 was 6.96.

`CC(C)(C)c1ccccc1Oc1ccc(-c2ccccc2-c2nnn[nH]2)cc1NC(=O)Nc1ccccc1Cl` [Example 179, 1-(4-(2-tert-butylphenoxy)-2′-(1H-tetrazol-5-yl)biphenyl-3-yl)-3-(2-chlorophenyl)urea]: the pIC50 was 6.68.

As for “4′-(2-(tert-butyl)phenoxy)-3′-(3-(4-fluorophenyl)ureido)-4-methoxy-[1,1′-biphenyl]-3-carboxylic acid [Example 107]”, the pIC50 is 6.49.

As to `CC(C)(C)c1ccccc1Oc1ccc(-c2cc(Cl)cc(C(=O)O)c2)cc1NC(=O)Nc1ccc(OC(F)(F)F)cc1` [Example 262, 4′-(2-tert-butylphenoxy)-5-chloro-3′-(3-(4-(trifluoromethoxy)phenyl)ureido) biphenyl-3-carboxylic acid], the negative logarithm of the IC50 (pIC50) is 5.34.

`Cc1ccccc1NC(=O)Nc1cc(-c2ccc(C(=O)O)c(Cl)c2)ccc1Oc1ccccc1C(C)(C)C` [Example 216, 4′-(2-tert-butylphenoxy)-3-chloro-3′-(3-o-tolylureido) biphenyl-4-carboxylic acid]: the pIC50 was 5.96.

On to `Cc1ccc(NC(=O)Nc2cc(-c3cccc(C(=O)O)c3)ccc2Oc2ccccc2)cc1` [Example 235, 4′-phenoxy-3′-(3-p-tolylureido) biphenyl-3-carboxylic acid], for which the pIC50 is 5.84.

Turning to `COc1ccc(-c2ccc(Oc3ccccc3C(C)(C)C)c(NC(=O)Nc3ccccc3)c2)cc1C(=O)O` [Example 78, 4′-(2-(tert-butyl)phenoxy)-4-methoxy-3′-(3-phenylureido)-[1,1′-biphenyl]-3-carboxylic acid], the pIC50 is 7.10.

With `COc1ccc(-c2ccc(Oc3ccccc3C(C)(C)C)c(NC(=O)Nc3ccc(C)cc3)c2)cc1C(=O)NS(C)(=O)=O` [Example 41, 4′-(2-tert-butylphenoxy)-4-methoxy-N-(methylsulfonyl)-3′-(3-p-tolylureido)biphenyl-3-carboxamide], the pIC50 was 6.37.

For the compound `CC(C)(C)c1ccccc1Oc1ccc(-c2ccccc2C(=O)O)cc1NC(=O)Nc1ccccc1Cl` [Example 155, 4′-(2-tert-butylphenoxy)-3′-(3-(2-chlorophenyl)ureido)biphenyl-2-carboxylic acid], the pIC50 was 6.35.

For the compound `COc1ccc(-c2ccc(Oc3ccccc3Cl)c(NC(=O)Nc3ccccc3C)c2)cc1C(=O)O` [Example 53, 4′-(2-chlorophenoxy)-4-methoxy-3′-(3-o-tolylureido)biphenyl-3-carboxylic acid], the negative-log IC50 (pIC50) was 5.66.

By pIC50 is commonly meant the IC50 on a negative log10 scale, so that one unit is a factor of ten.

Source of the values: patent US9765018B2, “IDO inhibitors” (BRISTOL-MYERS SQUIBB COMPANY, priority 2013, dated 2017).
